According to paper PMC7795425, “Synthesis and Biological Activity of Brassinosteroid Analogues with a Nitrogen-Containing Side Chain” (International Journal of Molecular Sciences, 2020):
Entries after “also recorded” stand apart in the source; their conditions may differ.

What was measured:
[1] = Calcein AM cytotoxicity assay, CEM; assay type: cell-based; details: human, CEM T-lymphoblastic leukemia cells, IC50 > 50 µM means inactive, read-out: Cytotoxic activity IC50
Method: (§1) The effect of the prepared BRs derivatives on the viability (in Calcein AM assays) of BJ human fibroblasts (as an example of a “normal” cell line) and human cancer cell lines of various histopathological origins, including: T-lymphoblastic leukemia CEM, breast carcinoma MCF7 and cervical carcinoma cell line HeLa, was also studied. Cells of all these lines were exposed to six 3-fold dilutions of each drug for 72 h prior to determination of cell survival. The IC50 (concentration leading to 50% inhibition of viability) values obtained from the Calcein AM cytotoxicity assay were calculated. […] All tested BR nitrogen-containing derivatives had no detectable activity, even when tested in concentrations of up to 50 µM.
(§2) The screening cell lines: T-lymphoblastic leukemia CEM; breast carcinoma MCF7 (estrogen-sensitive); cervical carcinoma cell line HeLa; and human foreskin fibroblasts BJ, were obtained from the American Type Culture Collection (Manassas, VA, USA). Cells were cultured in DMEM (Dulbecco’s Modified Eagle Medium, Sigma, St. Louis, MO, USA). Media used were supplemented with 10% fetal bovine serum, 2mM L-glutamine and 1% penicillin–streptomycin. The cell lines were maintained under standard cell culture conditions at 37 °C and 5% CO2 in a humid environment.
(§3) Cells were subcultured twice or three times a week using the standard trypsinization procedure. Cytotoxicity in cancer cell lines after 72 h was determined as described earlier. Control cultures were treated with DMSO alone, and the final concentration of DMSO in the mixture never exceeded 0.6%. Six serial 3-fold dilutions of the test substances were added at time zero in 20 μL aliquots to the microtiter plate wells and the highest final concentration in the wells was 50 μM.
(§4) Table S3: Cytotoxic activities, IC50 (µM/L)a, of compounds in three tumor and one normal fibroblast
(§5) Compound CEM MCF7 HeLa BJ
(§6) a The lowest concentration that kills 50% of cells.
(§7) b Increase of cell proliferation.

[2] = tested on: Arabidopsis thaliana L. (Columbia ecotype, Col-0) seedlings; assay: Arabidopsis root sensitivity bioassay; assay type: in vivo; details: for root length, mean: 7-day-old seedlings; for inhibitory effect on Arabidopsis root growth: tested 0.1 to 10 nM, selected derivatives also 100 nM
Method: Several bioassays such as the first bean internode, root growth and rice lamina inclination have been developed to evaluate the growth-promoting activity of BR derivatives. In this work, the activity of new BR analogues was evaluated using the Arabidopsis root sensitivity test because of its simplicity and high sensitivity for BRs.. The characteristic effect of exogenously applied BRs on light-grown Arabidopsis is dose-dependent—BRs in higher concentrations cause inhibition of root growth; vice versa, low concentrations are stimulating. The results obtained for 24-epiBL, which was used as a positive control, and the BR derivatives are shown in Figure 2, Figure 3 and Figure S21. […] A similar trend was shown for dimethylammonium hydrochloride 22a and morpholinium hydrochloride 22e with a long side chain. For numerical values of the average, SD and p-value, see Table S2.
The biological activity of the new BRs derivatives was tested by an Arabidopsis sensitivity bioassay which was performed according to [28]. Briefly, seedlings of Arabidopsis thaliana L. (Columbia ecotype, Col-0) were stratified for 2 days at 4 °C and germinated on vertical half-strength Murashige and Skoog (1% w/v sucrose) agar at 22 °C in a 16 h/8 h light–dark cycle. The plates contained concentrations of 24-epiBL (as positive control) and BR derivatives ranging from 0.1 to 10 nM, respectively 100 nM (for selected derivatives only). After 7 days, roots were straightened on solid media plates and scanned with an Epson high-resolution scanner. The entire root length was measured with ImageJ (http://rsbweb.nih.gov/ij/). For each treatment, more than 15 seedlings were analyzed in two biological repeats, and p-values were calculated with the two-tailed Student t-test using Excel software.
(§8) Figure 2 Effect of selected brassinosteroid derivatives on the inhibition of Arabidopsis root length. Seven-day-old Arabidopsis thaliana seedlings (Columbia ecotype, Col-0) were treated with DMSO as control/24epiBL/BR short side chain derivatives; (A)—amides, (B)—amines, (C)—ammonium hydrochlorides. For each treatment, more than 15 seedlings were analyzed in two biological repeats. Error bars represent SD. Asterisks represent significant changes (t-test); * represents p-value < 0.05, in comparison to control.
as §8, with “Figure 3” for “Figure 2”, “control/24epiBL/BR long” for “control/24epiBL/BR short”, “(A)—amides, (B)—ammonium” for “(A)—amides, (B)—amines, (C)—ammonium”
Table S2: Data for figure 2, 3, and S21. P value <0.05(t-test), comparison to control.
control (mean ± SD) 16.3 ± 1.21
*only selected compounds were tested
mean(mm) SD t-test mean (mm) SD t-test mean (mm) SD t-test mean (mm) SD t-test
(1 picture or pasted object on this page, not shown here)

[3] = Calcein AM cytotoxicity assay, MCF7; assay type: cell-based; details: human, MCF7 breast carcinoma cells (estrogen-sensitive), MCF7, 72 h, IC50 > 50 µM means inactive, read-out: Cytotoxic activity IC50
Method: as §1, §2, §3, §4, §5, §6, §7

[4] = Calcein AM cytotoxicity assay, BJ; assay type: cell-based; details: human, BJ foreskin fibroblasts (normal cell line), IC50 > 50 µM means inactive, read-out: Cytotoxic activity IC50
Method: as §1, §2, §3, §4, §5, §6, §7

[5] = Calcein AM cytotoxicity assay, HeLa; assay type: cell-based; details: human, HeLa cervical carcinoma cells, IC50 > 50 µM means inactive, read-out: Cytotoxic activity IC50
Method: as §1, §2, §3, §4, §5, §6, §7

[6] = 100 nM (only selected compounds), control 14.61 ± 0.85

SMILES	IC50 at 72 h [1] [µM]	root length, mean ([2]; 0.1 nM, control 16.3 ± 1.21) [mm]	root length, mean ([2]; 1 nM, control 16.3 ± 1.21) [mm]	root length, mean ([2]; 10 nM, control 16.3 ± 1.21) [mm]	IC50 at 72 h [3] [µM]	IC50 at 72 h [4] [µM]	IC50 at 72 h [5] [µM]	melting point	elongation of roots (growth-promoting activity) compared to the control ([2]; low concentrations (0.1 and 1 nM))	root length, mean [2, 6] [mm]	inhibitory effect on Arabidopsis root growth [2]
C[C@H](C(=O)N1CCCC1)[C@H]1CC[C@H]2[C@@H]3CC(=O)[C@H]4C[C@H](O)[C@H](O)C[C@]4(C)[C@H]3CC[C@]12C [8c, 1-((20S)-2α,3α-dihydroxy-6-oxo-5α-pregnane-20-carbonyl)pyrrolidine]	> 50	17.61	18.58	15.97	> 50	> 50	> 50	> 180 °C (dec.)	–	–	–
C[C@H](C(=O)N1CCCCC1)[C@H]1CC[C@H]2[C@@H]3CC(=O)[C@H]4C[C@H](O)[C@H](O)C[C@]4(C)[C@H]3CC[C@]12C [8d, 1-((20S)-2α,3α-dihydroxy-6-oxo-5α-pregnane-20-carbonyl)piperidine]	> 50	17.11	15.97	14.18	> 50	> 50	> 50	> 230 °C (dec.)	–	–	–
C[C@H](C(=O)N1CCOCC1)[C@H]1CC[C@H]2[C@@H]3CC(=O)[C@H]4C[C@H](O)[C@H](O)C[C@]4(C)[C@H]3CC[C@]12C [8e, 4-((20S)-2α,3α-dihydroxy-6-oxo-5α-pregnane-20-carbonyl)morpholine]	> 50	17.77	17.44	15.16	> 50	> 50	> 50	> 270 °C (dec.)	slight elongation of roots; also recorded: interesting growth-promoting activity	–	–
C[C@H](CN(C)C)[C@H]1CC[C@H]2[C@@H]3CC(=O)[C@H]4C[C@H](O)[C@H](O)C[C@]4(C)[C@H]3CC[C@]12C [15a, (20S)-20-(N,N-dimethylaminomethyl)-2α,3α-dihydroxy-5α-pregnane-6-one]	> 50	14.83	14.29	14.34	> 50	> 50	> 50	219 to 221 °C	–	–	–
CCN(CC)C[C@@H](C)[C@H]1CC[C@H]2[C@@H]3CC(=O)[C@H]4C[C@H](O)[C@H](O)C[C@]4(C)[C@H]3CC[C@]12C [15b, (20S)-20-(N,N-diethylaminomethyl)-2α,3α-dihydroxy-5α-pregnane-6-one]	> 50	14.93	16.13	14.67	> 50	> 50	> 50	> 190 °C (dec.)	–	13.903	–
C[C@H](CN1CCCC1)[C@H]1CC[C@H]2[C@@H]3CC(=O)[C@H]4C[C@H](O)[C@H](O)C[C@]4(C)[C@H]3CC[C@]12C [15c, (20S)-20-(pyrrolidin-1-ylmethyl)-2α,3α-dihydroxy-5α-pregnane-6-one]	> 50	16.78	14.37	17.21	> 50	> 50	> 50	> 240 °C (dec.)	–	–	–
C[C@H](CN1CCCCC1)[C@H]1CC[C@H]2[C@@H]3CC(=O)[C@H]4C[C@H](O)[C@H](O)C[C@]4(C)[C@H]3CC[C@]12C [15d, (20S)-20-(piperidin-1-ylmethyl)-2α,3α-dihydroxy-5α-pregnane-6-one]	> 50	14.18	14.11	15.15	> 50	> 50	> 50	> 210 °C (dec.)	–	–	–
C[C@H](CN1CCOCC1)[C@H]1CC[C@H]2[C@@H]3CC(=O)[C@H]4C[C@H](O)[C@H](O)C[C@]4(C)[C@H]3CC[C@]12C [15e, (20S)-20-(morpholin-4-ylmethyl)-2α,3α-dihydroxy-5α-pregnane-6-one]	> 50	17.21	17.61	16.21	> 50	> 50	> 50	> 210 °C (dec.)	–	13.731	–
C[C@H]([C@@H](O)[C@H](O)C(=O)N(C)C)[C@H]1CC[C@H]2[C@@H]3CC(=O)[C@H]4C[C@H](O)[C@H](O)C[C@]4(C)[C@H]3CC[C@]12C [20a, N,N-dimethyl-(20S,22R,23S)-2α,3α,22,23-tetrahydroxy-6-oxo-5α-cholan-24-amide]	> 50	16.13	14.67	14.18	> 50	> 50	> 50	> 210 °C (dec.)	–	15.192	weak inhibitory effect
CCN(CC)C(=O)[C@@H](O)[C@H](O)[C@@H](C)[C@H]1CC[C@H]2[C@@H]3CC(=O)[C@H]4C[C@H](O)[C@H](O)C[C@]4(C)[C@H]3CC[C@]12C [20b, N,N-diethyl-(20S,22R,23S)-2α,3α,22,23-tetrahydroxy-6-oxo-5α-cholan-24-amide]	> 50	16.78	15.32	14.99	> 50	> 50	> 50	> 160 °C (dec.)	–	–	–
C[C@H]([C@@H](O)[C@H](O)C(=O)N1CCCC1)[C@H]1CC[C@H]2[C@@H]3CC(=O)[C@H]4C[C@H](O)[C@H](O)C[C@]4(C)[C@H]3CC[C@]12C [20c, 1-((20S,22R,23S)-2α,3α,22,23-tetrahydroxy-6-oxo-5α-cholan-24-oyl)pyrrolidine]	> 50	15.97	15.81	15.15	> 50	> 50	> 50	> 200 °C (dec.)	–	14.873	weak inhibitory effect
